{
  "source": "patent US5977133A",
  "about": "“Pyridone antibiotic with improved safety profile” (priority 1998, dated 1999)",
  "key": {"in vivo": {"experiment": "in vivo", "details": "mouse, ip"}, "S. pneumoniae (PenR)": {"tested_on": "S. pneumoniae (PenR)", "experiment": "In vitro MIC, agar dilution", "type": "cell-based", "details": "Streptococcus pneumoniae"}, "P. aeruginosa (CiproS)": {"tested_on": "P. aeruginosa (CiproS)", "experiment": "In vitro MIC, agar dilution", "type": "cell-based", "details": "Pseudomonas aeruginosa"}, "[1]": {"details": "mouse, in vivo, ip, 100 mg/kg"}, "Escherichia coli JUHL": {"tested_on": "Escherichia coli JUHL", "experiment": "In vivo efficacy, mouse infection (ED50)", "details": "Escherichia coli, in Mus musculus, 168 h"}, "S. aureus (CiproR)": {"tested_on": "S. aureus (CiproR)", "experiment": "In vitro MIC, agar dilution", "type": "cell-based", "details": "Staphylococcus aureus"}, "[2]": {"tested_on": "Streptococcus pneumoniae 6303", "experiment": "In vivo efficacy, mouse infection (ED50)", "details": "Streptococcus pneumoniae, 6303, in Mus musculus, 168 h"}, "E. faecium (CiproR)": {"tested_on": "E. faecium (CiproR)", "experiment": "In vitro MIC, agar dilution", "type": "cell-based", "details": "Enterococcus faecium, read-out: MIC Range"}, "E. coli": {"tested_on": "E. coli", "experiment": "In vitro MIC, agar dilution", "type": "cell-based", "details": "Escherichia coli, 25 isolates", "procedure": "Each plate was inoculated with 1:100 (or 1:10 for slow-growing strains, primarily Micrococcus and Streptococcus) dilutions of up to 32 different microorganisms, using a Steers replicator block calibrated to deliver approximately 10^4 colony forming units (CFU's). The inoculated plates were incubated at from about 35° C. to about 37 ° C. for approximately 20-24 hours. In addition, a control plate using BHI agar containing no test compound was prepared and incubated at the beginning and at the end of each test. The quinolone antibacterial ciprofloxacin was used as a control (\"Cntl\").\nThe numbers below the microorganism species indicate the nunbers of isolates tested. […] The MIC is defined as the lowest concentration of test compound yielding no growth (a slight haze or sparsely isolated colonies at the inoculum spot) as compared to the growth control containing no test compound."}, "[3]": {"tested_on": "staphylococcus aureus NTCC 10649", "experiment": "In vivo efficacy, mouse infection (ED50)", "details": "Staphylococcus aureus, NTCC10649, in Mus musculus, 168 h"}, "E. faecium (CiproS)": {"tested_on": "E. faecium (CiproS)", "experiment": "In vitro MIC, agar dilution", "type": "cell-based", "details": "Enterococcus faecium"}, "S. pneumoniae (PenS)": {"tested_on": "S. pneumoniae (PenS)", "experiment": "In vitro MIC, agar dilution", "type": "cell-based", "details": "Streptococcus pneumoniae"}, "P. aeruginosa (CiproR)": {"tested_on": "P. aeruginosa (CiproR)", "experiment": "In vitro MIC, agar dilution", "type": "cell-based", "details": "Pseudomonas aeruginosa, P. aeruginosa (CiproR), 20 isolates"}, "E. faecalis (VanS)": {"tested_on": "E. faecalis (VanS)", "experiment": "In vitro MIC, agar dilution", "type": "cell-based", "details": "Enterococcus faecalis"}, "Enterococcus spp. (VanR)": {"tested_on": "Enterococcus spp. (VanR)", "experiment": "In vitro MIC, agar dilution", "type": "cell-based"}, "S. aureus (CiproS)": {"tested_on": "S. aureus (CiproS)", "experiment": "In vitro MIC, agar dilution", "type": "cell-based", "details": "Staphylococcus aureus"}, "B. fragilis": {"tested_on": "B. fragilis", "experiment": "In vitro MIC, agar dilution", "type": "cell-based", "details": "Bacteroides fragilis"}},
  "note": "Structures can show the parent of a compound that is named as a salt.",
  "data": [
    {"smiles": "Cc1c(N2CC[C@H](N)C2)c(F)cn2c(=O)c(C(=O)O)cc(C3CC3)c12", "note": "[Example 2, 1-cyclopropyl-8-(3(S)-3-amino-1-pyrrolidinyl)-7-fluoro-9-methvl-4-oxo-4H-quinolizine-3-carboxylic acid hydrochloride]", "values": [
      {"measurement": "LD50 at 504 h", "setting": "in vivo", "result": 38.8, "unit": "mg/kg"},
      {"measurement": "MIC50", "setting": "S. pneumoniae (PenR)", "result": 0.03, "unit": "mg/L"},
      {"measurement": "MIC90", "setting": "S. pneumoniae (PenR)", "result": 0.03, "unit": "mg/L"},
      {"measurement": "MIC", "setting": "S. pneumoniae (PenR); S. pneumoniae (PenR), 25 isolates, read-out: MIC Range", "result": 0.03, "unit": "mg/L"},
      {"measurement": "MIC90", "setting": "P. aeruginosa (CiproS)", "result": 0.25, "unit": "mg/L"},
      {"measurement": "MIC50", "setting": "P. aeruginosa (CiproS); P. aeruginosa (CiproS), 24 isolates, read-out: MIC50", "result": 0.06, "unit": "mg/L"},
      {"measurement": "MIC", "setting": "P. aeruginosa (CiproS); P. aeruginosa (CiproS), 24 isolates, read-out: MIC Range", "result": "0.015 to 0.5", "unit": "mg/L"},
      {"measurement": "body weight loss", "setting": "[1]", "result": 38, "unit": "%"},
      {"measurement": "ED50", "setting": "Escherichia coli JUHL; po", "result": 0.6, "unit": "mg/kg"},
      {"measurement": "ED50", "setting": "Escherichia coli JUHL; sc", "result": 0.1, "unit": "mg/kg"},
      {"measurement": "MIC90", "setting": "S. aureus (CiproR)", "result": 0.25, "unit": "mg/L"},
      {"measurement": "MIC50", "setting": "S. aureus (CiproR); S. aureus (CiproR), 25 isolates, read-out: MIC50", "result": 0.25, "unit": "mg/L"},
      {"measurement": "MIC", "setting": "S. aureus (CiproR); S. aureus (CiproR), 25 isolates, read-out: MIC Range", "result": "0.03 to 1", "unit": "mg/L"},
      {"measurement": "ED50", "setting": "[2]; po", "result": 5.3, "unit": "mg/kg"},
      {"measurement": "ED50", "setting": "[2]; sc", "result": 1.6, "unit": "mg/kg"},
      {"measurement": "MIC", "setting": "E. faecium (CiproR)", "result": "0.5 to 2", "unit": "mg/L"},
      {"measurement": "MIC", "setting": "E. coli", "result": "0.004 to 0.015", "unit": "mg/L"},
      {"measurement": "MIC50", "setting": "E. coli; read-out: MIC50", "result": 0.004, "unit": "mg/L"},
      {"measurement": "MIC90", "setting": "E. coli; read-out: MIC90", "result": 0.008, "unit": "mg/L"},
      {"measurement": "ED50", "setting": "[3]; po", "result": 3.4, "unit": "mg/kg"},
      {"measurement": "ED50", "setting": "[3]; sc", "result": 0.6, "unit": "mg/kg"},
      {"measurement": "MIC90", "setting": "E. faecium (CiproS)", "result": 0.25, "unit": "mg/L"},
      {"measurement": "MIC", "setting": "E. faecium (CiproS); read-out: MIC Range", "result": "0.25 to 0.5", "unit": "mg/L"},
      {"measurement": "MIC50", "setting": "E. faecium (CiproS); E. faecium (CiproS), 16 isolates, read-out: MIC50", "result": 0.25, "unit": "mg/L"},
      {"measurement": "MIC50", "setting": "S. pneumoniae (PenS)", "result": 0.03, "unit": "mg/L"},
      {"measurement": "MIC90", "setting": "S. pneumoniae (PenS)", "result": 0.03, "unit": "mg/L"},
      {"measurement": "MIC", "setting": "S. pneumoniae (PenS); S. pneumoniae (PenS), 20 isolates, read-out: MIC Range", "result": "0.015 to 0.03", "unit": "mg/L"},
      {"measurement": "MIC50", "setting": "P. aeruginosa (CiproR); read-out: MIC50", "result": 2, "unit": "mg/L"},
      {"measurement": "MIC90", "setting": "P. aeruginosa (CiproR); read-out: MIC90", "result": 2, "unit": "mg/L"},
      {"measurement": "MIC", "setting": "P. aeruginosa (CiproR); read-out: MIC Range", "result": "1 to 4", "unit": "mg/L"},
      {"measurement": "MIC90", "setting": "E. faecalis (VanS)", "result": 0.12, "unit": "mg/L"},
      {"measurement": "MIC50", "setting": "E. faecalis (VanS); E. faecalis (VanS), 17 isolates, read-out: MIC50", "result": 0.06, "unit": "mg/L"},
      {"measurement": "MIC", "setting": "E. faecalis (VanS); E. faecalis (VanS), 17 isolates, read-out: MIC Range", "result": "0.03 to 0.12", "unit": "mg/L"},
      {"measurement": "MIC90", "setting": "Enterococcus spp. (VanR); Enterococcus", "result": 0.25, "unit": "mg/L"},
      {"measurement": "MIC50", "setting": "Enterococcus spp. (VanR); Enterococcus spp. (VanR), 21 isolates, read-out: MIC50", "result": 0.25, "unit": "mg/L"},
      {"measurement": "MIC", "setting": "Enterococcus spp. (VanR); Enterococcus spp. (VanR), 21 isolates, read-out: MIC Range", "result": "0.12 to 2", "unit": "mg/L"},
      {"measurement": "MIC90", "setting": "S. aureus (CiproS)", "result": 0.015, "unit": "mg/L"},
      {"measurement": "MIC50", "setting": "S. aureus (CiproS); S. aureus (CiproS), 21 isolates, read-out: MIC50", "result": 0.008, "unit": "mg/L"},
      {"measurement": "MIC", "setting": "S. aureus (CiproS); S. aureus (CiproS), 21 isolates, read-out: MIC Range", "result": "0.008 to 0.015", "unit": "mg/L"},
      {"measurement": "MIC90", "setting": "B. fragilis", "result": 0.5, "unit": "mg/L"},
      {"measurement": "MIC", "setting": "B. fragilis; read-out: MIC Range", "result": "0.06 to 0.5", "unit": "mg/L"},
      {"measurement": "MIC50", "setting": "B. fragilis; B. fragilis, 18 isolates, read-out: MIC50", "result": 0.12, "unit": "mg/L"}
    ]}
  ]
}
